Experimental findings from patent US20030095982A1, “Fraction of Cordyceps sinensis and method of isolation thereof” (priority 2001, published 2003) are described below.

The subject of experiment [1] is ovalbumin (OA) induced bronchial hyperresponsiveness. The experiment in a line: Histological examination of lung tissue in asthma model. The conditions noted are these: prophylactic and therapeutic treatment. Type of experiment: in vivo, brown Norway rats (BNR). As for the experimental part: After BAL, each animal's chest was opened and the lungs were removed. The trachea and right lower lobe was fixed in 10% formaldehyde, dehydrated by different concentrations of alcohol, then embedded in paraffin, and cut into 4 μm thicknesses, stained with haematoxylin and eosin, and examined by light microscope. Histologic specimens (n=6 per each time point) were prepared. The trachea and each lobe were fixed in 10% formaldehyde, dehydrated by different concentrations of alcohol, then embedded in paraffin, and cut into 4 μm thicknesses; stained with haematosylin and eosin, and examined by light microscope for evaluation of the severity of inflammation. Each trachea and lung section was blindly assigned an inflammation score by two pathologists as follows; 1=rare or occasional inflammation cells scattered through the lung or trachea; 3=abundant inflammatory cells scattered through the lung or trachea; 2=inflammatory cells between the levels of 1 and 3. The total inflammation score for each animal was calculated as mean of the scores for 5 lung sections and trachea.

The test system is the same in experiment [2]. The experiment in a line: Bronchoalveolar lavage cell counts, OA model in BALBc mice. Type of experiment: in vivo. As for the experimental part:
After completion of the pulmonary function tests, BAL was performed using 1 mL normal saline twice (total 2 mL). The BAL fluid was collected into plastic flasks containing 1,500 units of heparin and then strained through 1 layer of surgical gauze and centrifuged at 500 g for 5 min. The cell pellet was washed 3 times with sterile saline solution and resuspended in RPMI-1640. A small portion was taken for evaluation of cell number and viability, as assessed by trypan blue exclusion.
Differential counts were obtained using a cytocentrifuge preparation (Cytospin; Shandon Southern Instruments, Sewickley, Pa.) stained with Liu's stain (modified May-Giemsa stain).

Experiment [3] shares this test system. The experiment in a line: Pulmonary function test, OA sensitized and challenged BALBc mice. Type of experiment: in vivo. As for the experimental part: In the nonanesthetized condition, 24 hours after airway challenge by 3 mL 1% OA aerosol, pulmonary function testing (PET) was measured by WBP at baseline and after methacholine (Mch) inhalation challenge. Four hours after PET in a nonanesthetized condition, all animals were anesthetized with sodium pentobarbitone (50 mg/kg intraperitoneally). Jugular vein cannulation (PE-10 polyethylene tube filled with heaprin, 1000 iu/mL in normal saline) and tracheostomy were performed. The animals were put in a body box (anesthetized small animal body box, Buxco, USA) in a supine position. Gallamine triethiodide (4 mg/kg) was injected intravenously to induce paralysis and inhibit spontaneous breathing. A small animal ventilator set at a tidal volume 6 mL/kg and a respiratory rate of 120 times/minute was used to ventilate the animals by room air. All animals were stable without spontaneous breathing 5 minutes after gallamine was given. Pulmonary function tests, including flow volume loop, peak airway opening pressure (PaO), and gas flow to calculate total dynamic lung compliance, were examined at baseline. Thereafter, 25, 50, 75 and 100 μg/kg of acetylcholine were given intravenously at 30 minute intervals. Pulmonary function test were done 5 seconds after each dose of acetylcholine. Before each dose of acetylcholine the flow volume loop returned to baseline.
The PaO was measured by a Gould pressure transducer at the tracheostomy. PaO was defined as opening airway pressure during tidal breathing when a small animal ventilator was used (tidal volume 6 mL/kg, respiratory rate 120 times/minute). Respiratory flow was measured by a DP-45-14 differential pressure transducer.
For the maximal forced expiratory maneuver (MFEM), the lungs were inflated to total lung capacity (TLC, lung volume at PaO =35 cm H2O) 3 times; the inflation was regulated by a solenoid valve. At peak volume during the third inflation, the inflation valve was shut off and the other solenoid valve was used immediately for deflation. The deflation valve was connected to a 20 liter container with a pressure of −40 cm H2O (subatmospheric). The negative pressure produced maximal expiratory flow (Vmax). The changes in flow, volume and PaO were recorded by a 7P1, 7P10 preamplifier (Grass instrument Company, USA) from the body box and flow volume was stored in an oscilloscope (Hitachi Den Shi America Ltd, New York, USA). The parameters of the flow volume loop (FV loop), including peak flow (the maximal flow rate of the FV loop), MFEF75% (the flow rate at 75% TLC), MFEF50% (the flow rate at 50% TLC) and MFEF25% (the flow rate at 25% TLC) were recorded.
PD20MFEF50%Ach is the dose of acetylcholine required to produce a decrease in MFEF50% of 20% from baseline. PD20MFEF25%Ach is the dose required to produce a decrease in MFEF25% of 20% from baseline. PD50PaOAch is the dose required to produce an increase in PaO of 50% from baseline. PD50CdynAch is the dose required to produce a decrease in Cdyn of 50% from baseline. PD50RawAch is the dose required to produce an increase in Raw of 50% from baseline after acetylcholine was given.
TLC and residual volume (RV) were defined as the gas volume in the lungs at airway pressures of +30 cm H2O (TLC) and −10 cm H2O (RV) respectively. The lungs were deflated to RV by connecting one port of the respiratory valve to a 4-liter reservoir at −10 cm H2O; the valve was then turned, and the lungs were inflated from a syringe to TLC. The volume necessary to inflate the lungs from −10 to 30 cm H2O was read from the syringe and was recorded as the vital capacity (VC). A specific measurement sequence was used throughout the study. VC was determined three times and then TLC was measured three times each. The average valve of the three measurements was reported.
Lung volumes (such as TLC and FRC) were also measured using the gas (Neon) dilution principle. […]

The mark [4] stands for this setting: BAL fluid, BALBc mice, 4 mg/Kg intraperitoneally 30 minutes before OA inhalation provocation.
Setting [5] is: BALBc mice, baseline, 4 mg/Kg intraperitoneally 30 minutes before OA inhalation provocation, mean±SD.

Regarding `CC(C)[C@@H](C)C=C[C@@H](C)[C@H]1CC[C@H]2C3=C[C@@H](O)[C@@]4(O)C[C@@H](O)CC[C@]4(C)[C@H]3CC[C@]12C` [F8, (24R)-ergosta-7,22-diene-3β, 5α, 6β,-triol], the pulmonary histological change result in experiment [1] is “improve pulmonary histological change”. In addition, in experiment [2] (setting [4]), the “Eosinophil Cell count” value is 0.12 ± 0.04 (×10^4)/mL, the “Eosinophil Percentage of total cell count (%)” value turned out to be 6.3 ± 1.6 %, the “Lymphocyte Cell count” value was 0.10 ± 0.04 (×10^4)/mL and the “Lymphocyte Percentage of total cell count (%)” value is reported as 5.2 ± 1.6 %. In addition, in experiment [2] (setting [4]), the “Macrophage Cell count” value is 1.82 ± 0.21 (×10^4)/mL, the “Macrophage Percentage of total cell count (%)” value is recorded as 84.2 ± 3.4 %, the “Neutrophil Cell count” value is reported as 0.13 ± 0.03 (×10^4)/mL and the “Neutrophil Percentage of total cell count (%)” value stood at 5.1 ± 1.0 %. The Total cell count in experiment [2] (setting [4]) is 2.23 ± 0.64 (×10^4)/mL. Besides, in experiment [2] (mice, treatment study (administered after OA challenge)), the “BAL total cell counts, eosinophils and lymphocytes versus group II” value was “Group II had higher total cell counts than other 2 groups”. Further, the “percentage of baseline MFEF 50% TLC, Ach dose response” value in experiment [3] (BALB/c mice, pretreated before OA inhalation provocation (group I) vs OA-treated (group II), Ach doses higher than 25 μg/kg) is “group II was significantly lower then group I”. Moreover, in experiment [3] (setting [5]), the “Cdyn (total dynamic lung compliance)” value is recorded as 0.42 ± 0.04 mL/cmH2O, the “FEV 0.1” value amounted to 1.26 ± 0.17 mL, the “MFEF 25%” value is 6.06 ± 1.59 mL/s and the “MFEF 50%” value is 14.58 ± 1.31 mL/s. In addition, in experiment [3] (setting [5]), the “MFEF 75%” value was determined as 19.94 ± 2.53 mL/s, the “PaO (airway opening pressure at tidal breathing)” value was 3.8 ± 0.5 cmH2O, the Peak flow is 22.64 ± 2.07 mL/s and the TLC is reported as 1.68 ± 0.25 mL. The Vital capacity in experiment [3] (setting [5]) was found to be 1.29 ± 0.11 mL. The “baseline flow volume loop parameters (MFEF 50%TLC, MFEF 25%TLC, Cdyn) versus group II” value in experiment [3] (mice, treatment study (administered after OA challenge), p<0.05) was “lower in group II when compared with group I and III”.
